Test results taken from article PMC8802628, “Selective activation of PFKL suppresses the phagocytic oxidative burst” (Cell, 2021).

Tests used:
E. coli = experiment: Phagocytosis assay: E. coli C.F.U. recovered from PMNs; type: cell-based, human; settings: neutrophils pretreated 30 min
Procedure: Neutrophils (1 × 10^6) were cultured in 6-well tissue in RPMI medium containing DMSO vehicle, 0.5 μM NA-11, 0.5 μM NA-4, 100 μM Apocynin or 100 μM thionicotinamide (TN) for 30 min. E. coli grown in LB broth overnight (2 mL) were opsonized with human serum (1 mL pooled from three donors) for 1 h at room temperature. Opsonized bacteria were washed with PBS, resuspended in LB broth to an OD600of 0.1 and then added to cultured neutrophils at an MOI of 1 for 30 min. Cells were washed with medium three times and then cultured with 300 μg/mL gentamicin for 2 h to kill any extracellular bacteria. Cells were then washed again, twice with medium and once with PBS. To release phagocytosed bacteria, neutrophils were lysed in 0.05% saponin in PBS. Lysates were passed through a 25’ gauge needed several times and the number of viable phagocytosed bacteria was determined by colony counting.

PMNs [1] = experiment: Phagocytosis of zymosan particles by PMNs; type: cell-based, human; settings: neutrophils, zymosan 2 h
Procedure: Figure S7. NA-11 activates PFKL to prevent the oxidative burst and impair neutrophil defenses, related to Figures 4 and 6
(A) PFK1 activity in PMN lysates. Cells were pretreated with 0.5 mM NA-11, 5 mM LDC7559, 100 mM apocynin, 200 mM thionicotinamid e (TN), 1 mM MEK inhibitor U0126, or DMSO vehicle for 30 min, or 1 mM proteasome inhibitor bortezomib for 1 h, and then activated with 50 nM PMA for 30 min where indicated. Bars represent the mean ± s.d. of cells from 3 donors. (B) NADH:NAD+ ratio in PMA-activated PMNs. Cells were pretreated with 0.5 mM NA-11 or DMSO vehicle for 30 min, and then activated with 50 nM PMA for 30 min. Data are the mean ± s.d. of cells from 3 donors. (C) Immunolabeling of citrullinated histone H3 (magenta) and myeloperoxidase (red) in PMNs pretreated with 0.5 mM NA-11 or DMSO vehicle for 30 min and then stimulated for 4 h with 50 nM PMA, 10 mg/mL extracellular LPS, 0.5 mg/mL cholesterol crystals, or 25 mM nigericin. Chromatin is stained green. Scale bar, […]. Results are representative of 3 independent experiments.
(D) Fluorescence micrographs of PMNs pretreated with 0.5 mM NA-11, 200 mM thionicotinamide (TN), 0.5 mM NA-4, or DMSO vehicle for 30 min, and then incubated with serum-opsonized Texas Red-conjugated zymosan particles (10 mg/mL) for 2 h. […]

PMNs [2] = experiment: ROS detection assay (ROS-Glo) in neutrophils; type: cell-based, human; settings: over 2 h
Procedure: ROS were measured using the ROS-Glo bioluminescent assay (Promega) for the direct detection of H2O2. Briefly, neutrophils (2 × 10^4) were plated in white 96-well plates (Greiner) in high glucose DMEM medium. Cells were cultured with DMSO vehicle, 0.5 μM NA-11, 5 μM LDC7559, 100 μM apocynin, or 200 μM thionicotinamide for 30 min, and then stimulated with 50 nM PMA or treated with 10 μg/mL zymosan beads, pre-opsonized in 20% serum for 30 min. Luminescence, after the addition of H2O2 substrate solution of 20 min, and then ROS-Glo detection solution for 20 min, was recorded on a plate reader (Envision).

[3] = substrate: O=C(CO)[C@@H](O)[C@H](O)[C@H](O)COP(=O)(O)O; experiment: Recombinant PFKM activity assay; type: biochemical, human; settings: other: PFKM wild type, pH 7.0, 250 μM ATP, 25.0 °C
Description: (§1) Recombinant N-terminal His-tagged human PFKL (NP_002617), PFKM (NP_000280), and PFKP (NM_002627.4) were generated as described ([Webb et al., 2015], [2017]). Point mutants of PFK1 were generated using the QuikChange Lightning kit (Aligent).
(§2) His-tagged PFK1 was expressed and purified as described with slight modifications ([Webb et al., 2015], [2017]). Briefly, baculovirus was generated using the Bac-to-Bac Expression system (Invitrogen). PFK1 was expressed in 2-5 × 10^6 sf9 cells at a multiplicity of infection of two for 48 h. […] Protein was quantified using a Bradford Protein Assay kit (ThermoFisher Scientific), and aliquotes frozen in liquid nitrogen for storage at −80°C.
(§3) PFK1 activity was determined using the rate of FBP production via an auxiliary enzyme assay adapted to a 96-well format ([Brüser et al., 2012]; [Webb et al., 2015]). […] For assays containing FBP, the rate of ADP production was determined using the auxiliary enzymes pyruvate kinase (PK) and lactate dehydrogenase (LDH) (MilliporeSigma) in a buffer containing 250 μM phosphoenolpyruvic acid, […] NADH, 50 mM HEPES pH 7.5, 100 mM KCl, 1 mM DTT, and effector concentrations as described in the text. […] Absorbance at 340 nm was measured using a Varioskan LUX Multimode microplate reader (ThermoFisher). […]

[4] = substrate: O=C(CO)[C@@H](O)[C@H](O)[C@H](O)COP(=O)(O)O; experiment: Recombinant PFKM+pocket activity assay; type: biochemical, human; settings: other: PFKM+pocket, pH 7.0, 250 μM ATP, 25.0 °C
Description: as §1, §2, §3

[5] = substrate: O=C(CO)[C@@H](O)[C@H](O)[C@H](O)COP(=O)(O)O; experiment: Recombinant PFKL3Mut activity assay; type: biochemical, human; settings: other: PFKL3Mut, pH 7.5, 225 μM ATP, 25.0 °C
Description: as §1, §2, §3

`NC(=S)c1cccnc1` [TN, thionicotinamide, reference compound] was tested, and the “killing of phagocytosed bacteria (bacterial colonies recovered)” value (E. coli) was “less efficient killers of phagocytosed bacteria”, the “phagocytosis (intracellular zymosan particles)” value (PMNs [1]) was “neither NA-11 nor TN affected phagocytosis” and the “ROS production during phagocytosis of opsonized zymosan” value (PMNs [2]) was “kept ROS production at basal levels”.

B1: human PFKM (Homo sapiens) (protein)
chain: MTHEEHHAAKTLGIGKAIAVLTSGGDAQGMNAAVRAVVRVGIFTGARVFFVHEGYQGLVDGGDHIKEATWESVSMMLQLGGTVIGSARCKDFREREGRLRAAYNLVKRGITNLCVIGGDGSLTGADTFRSEWSDLLSDLQKAGKITDEEATKSSYLNIVGLVGSIDNDFCGTDMTIGTDSALHRIMEIVDAITTTAQSHQRTFVLEVMGRHCGYLALVTSLSCGADWVFIPECPPDDDWEEHLCRRLSETRTRGSRLNIIIVAEGAIDKNGKPITSEDIKNLVVKRLGYDTRVTVLGHVQRGGTPSAFDRILGSRMGVEAVMALLEGTPDTPACVVSLSGNQAVRLPLMECVQVTKDVTKAMDEKKFDEALKLRGRSFMNNWEVYKLLAHVRPPVSKSGSHTVAVMNVGAPAAGMNAAVRSTVRIGLIQGNRVLVVHDGFEGLAKGQIEEAGWSYVGGWTGQGGSKLGTKRTLPKKSFEQISANITKFNIQGLVIIGGFEAYTGGLELMEGRKQFDELCIPFVVIPATVSNNVPGSDFSVGADTALNTICTTCDRIKQSAAGTKRRVFIIETMGGYCGYLATMAGLAAGADAAYIFEEPFTIRDLQANVEHLVQKMKTTVKRGLVLRNEKCNENYTTDFIFNLYSEEGKGIFDSRKNVLGHMQQGGSPTPFDRNFATKMGAKAMNWMSGKIKESYRNGRIFANTPDSGCVLGMRKRALVFQPVAELKDQTDFEHRIPKEQWWLKLRPILKILAKYEIDLDTSDHAHLEHITRKRSGEAAV
notes: made in house; host or cells: Sf9 insect cells (baculovirus)
In the case of B1, the Km [3] is reported as 610 ± 50 µM.

B2: PFKM+pocket (R315 to lysine) (Homo sapiens; R315K) (protein)
chain: MTHEEHHAAKTLGIGKAIAVLTSGGDAQGMNAAVRAVVRVGIFTGARVFFVHEGYQGLVDGGDHIKEATWESVSMMLQLGGTVIGSARCKDFREREGRLRAAYNLVKRGITNLCVIGGDGSLTGADTFRSEWSDLLSDLQKAGKITDEEATKSSYLNIVGLVGSIDNDFCGTDMTIGTDSALHRIMEIVDAITTTAQSHQRTFVLEVMGRHCGYLALVTSLSCGADWVFIPECPPDDDWEEHLCRRLSETRTRGSRLNIIIVAEGAIDKNGKPITSEDIKNLVVKRLGYDTRVTVLGHVQRGGTPSAFDRILGSKMGVEAVMALLEGTPDTPACVVSLSGNQAVRLPLMECVQVTKDVTKAMDEKKFDEALKLRGRSFMNNWEVYKLLAHVRPPVSKSGSHTVAVMNVGAPAAGMNAAVRSTVRIGLIQGNRVLVVHDGFEGLAKGQIEEAGWSYVGGWTGQGGSKLGTKRTLPKKSFEQISANITKFNIQGLVIIGGFEAYTGGLELMEGRKQFDELCIPFVVIPATVSNNVPGSDFSVGADTALNTICTTCDRIKQSAAGTKRRVFIIETMGGYCGYLATMAGLAAGADAAYIFEEPFTIRDLQANVEHLVQKMKTTVKRGLVLRNEKCNENYTTDFIFNLYSEEGKGIFDSRKNVLGHMQQGGSPTPFDRNFATKMGAKAMNWMSGKIKESYRNGRIFANTPDSGCVLGMRKRALVFQPVAELKDQTDFEHRIPKEQWWLKLRPILKILAKYEIDLDTSDHAHLEHITRKRSGEAAV
notes: as for B1
With B2 the Km [4] was 1410 ± 80 µM.

B3: PFKL (K315R, V545L, and V582M), PFKL3Mut (Homo sapiens; K315R/V545L/V582M) (protein)
chain: MAAVDLEKLRASGAGKAIGVLTSGGDAQGMNAAVRAVTRMGIYVGAKVFLIYEGYEGLVEGGENIKQANWLSVSNIIQLGGTIIGSARCKAFTTREGRRAAAYNLVQHGITNLCVIGGDGSLTGANIFRSEWGSLLEELVAEGKISETTARTYSHLNIAGLVGSIDNDFCGTDMTIGTDSALHRIMEVIDAITTTAQSHQRTFVLEVMGRHCGYLALVSALASGADWLFIPEAPPEDGWENFMCERLGETRSRGSRLNIIIIAEGAIDRNGKPISSSYVKDLVVQRLGFDTRVTVLGHVQRGGTPSAFDRILSSRMGMEAVMALLEATPDTPACVVTLSGNQSVRLPLMECVQMTKEVQKAMDDKRFDEATQLRGGSFENNWNIYKLLAHQKPPKEKSNFSLAILNVGAPAAGMNAAVRSAVRTGISHGHTVYVVHDGFEGLAKGQVQEVGWHDVAGWLGRGGSMLGTKRTLPKGQLESIVENIRIYGIHALLVVGGFEAYEGVLQLVEARGRYEELCIVMCVIPATISNNVPGTDFSLGSDTALNAAMESCDRIKQSASGTKRRVFIVETMGGYCGYLATMTGIAVGADAAYVFEDPFNIHDLKVNVEHMTEKMKTDIQRGLVLRNEKCHDYYTTEFLYNLYSSEGKGVFDCRTNVLGHLQQGGAPTPFDRNYGTKLGVKAMLWLSEKLREVYRKGRVFANAPDSACVIGLKKKAVAFSPVTELKKDTDFEHRMPREQWWLSLRLMLKMLAQYRISMAAYVSGELEHVTRRTLSMDKGF
notes: as for B1
Molecule B3 has a Km [5] of 570 ± 60 µM.
